# Data published in PMC5789083, “Mechanisms driving the antibacterial and antibiofilm properties of Hp1404 and its analogue peptides against multidrug-resistant Pseudomonas aeruginosa” (Scientific Reports, 2018).
# Where no end group is shown, it is not given here.
# Key:
# [1] = system: trypsin; assay: Trypsin stability assay; type: in vitro ADME; conditions: trypsin (25 nM) in sodium phosphate buffer, 20 µg peptide in 100 µL 10 mM sodium phosphate buffer pH 7.4 with 25 nM trypsin, 37 °C, RP-HPLC peak area of native peptide (C18), repeated three times, read-out: remaining peptide after trypsin treatment
# Experimental: Each sample with trypsin was analysed by RT-HPLC on a Jupiter C18 column (4.6 × 250 mm, 300 Å, 5 µm; Phenomenex). Stability was expressed as the percentage of remaining peptide, which in turn was determined by comparing the HPLC peak areas, corresponding to the peak detected for the native peptide, before and after trypsin treatment. […]
# (§1) released calcein was measured at an excitation wavelength of 480 nm and an emission […]
# Trypsin stability assay. Peptides were treated with trypsin, and results were ev aluated usin g RP-HP LC, as described previously3. Briefly, 20 µ g of peptide was mixed with 100 µ L of 10 mM sodium phosphate buffer (pH 7.4) containing 25 nM trypsin (Sigma-Aldrich), and incubated at 37 °C for 1 h or 2 h. A fter incubation, 20 µL of each sampl e was anal ysed b y RT-HP LC on a J upiter C18 column (4.6 × 250 m m, 300 Å, 5 µm; Phenomenex).
# (§2) PI uptake assay. Bacteri al membrane damage was assessed through monitoring the changes in fluorescence generated by the propidium iodide (P I) dye, as described previousl y4. Briefl y, P. aeruginosa ATCC 27853 was grown in NB to logarithmic phase of growth, and then diluted to OD600 = 0.25 in 10 mM sodium phosphate (pH 7.2) buffer with 10 % medium. […] PI fluorescence was monitored at an excitation wavelength of 580 nm and emission wavelength of 620 nm, using a micropl ate reader (Molecular Devices Co., Sunnyvale, CA, USA), during 30 min.
# [2] = system: mammalian cells; conditions: at concentrations below 50 µM; cited from earlier work
# Experimental: In a previous study, Hp1404 was purified from the venomous gland of the scorpion Heterometrus petersii. […] Moreover, it is not toxic to mammalian cells at concentrations below 50 µM[20].
# [3] = system: mouse red blood cells; assay: Hemolytic activity; type: cell-based; conditions: 8% mouse RBCs in PBS, 37 °C, 1 h, A414, triplicate
# Experimental: The hemolytic activities of the peptides were determined as previously described. Fresh mouse red blood cells (RBCs) were washed and diluted to 8% with PBS. RBC suspension was added to 96-well plates (100 µL/well), mixed with an equal volume of serially diluted peptides, and incubated at 37 °C for 1 h with gentle shaking. The plate was centrifuged and the supernatant was transferred to a 96-well plate. The absorbance at 414 nm was measured with a Versa-Max ELISA reader (Molecular Devices). PBS and 0.1% Triton X-100 were used as negative and positive controls, respectively. The experiment was performed in triplicate. The hemolysis rate was calculated using the following formula[55]: % Hemolysis = [(Abs 414 nm in the peptide solution-Abs 414 nm in PBS)/(Abs 414 nm in 0.1% Triton X-100-Abs 414 nm in PBS)] × 100
# [4] = Calcein leakage assay, PC:CH:SM LUVs; conditions: PC:CH:SM (1:1:1, w/w) LUVs mimicking mammalian cell membranes (Fig. S4)
# Text: Peptide synthesis and purification. The peptides were s ynthesized using the solid- phase-9-fluorenylmethoxycarbonyl (Fmoc) method, as reported previously1, on a Rink amide 4-methylbenzhydrylamine resin, using a Liberty microwave peptide synthesizer (CEM, Matthews, NY, USA). The following chemicals were us ed as linkage reagents: 0.45 M 2- (1H - benzotriazole-1- yil)-1,1,3,3- tetramethyluronium hexafluorophosphate (HBTU) diluted in dimethylformamide (DMF), 0.1 M N -hydroxybenzotriazole (HOBt) diluted in piperidine/DMF, and 2 M N ,N -diisopropyleth ylamine (DIEA) diluted in N -methylp yrrolidone (NMP). […]
# (§3) Ti me -killing assay. […] After an 18- h incubation, the colonies were counted and aver age counts wer e determined.
# (§4) Calcein leakage assay. […] The fluorescence generated from the […]
# as §1
# as §2, with “y4.” for “y4. Briefl y, P. aeruginosa ATCC 27853 was grown in NB to logarithmic phase of growth, and then diluted to OD600 = 0.25 in 10 mM sodium phosphate (pH 7.2) buffer with 10 % medium.”
# [5] = system: P. aeruginosa ATCC 27853; assay: Time-killing assay; type: cell-based, Pseudomonas aeruginosa; conditions: at 2 hours; 2× MIC, P. aeruginosa ATCC 27853, 2 × 10^5 CFU/mL, colony counts in triplicate
# Text: Peptide synthesis and purification. The peptides were s ynthesized using the solid- phase-9-fluorenylmethoxycarbonyl (Fmoc) method, as reported previously1, on a Rink amide 4-methylbenzhydrylamine resin, using a Liberty microwave peptide synthesizer (CEM, Matthews, NY, USA). The following chemicals were us ed as linkage reagents: 0.45 M 2- (1H - benzotriazole-1- yil)-1,1,3,3- tetramethyluronium hexafluorophosphate (HBTU) diluted in dimethylformamide (DMF), 0.1 M N -hydroxybenzotriazole (HOBt) diluted in piperidine/DMF, and 2 M N ,N -diisopropyleth ylamine (DIEA) diluted in N -methylp yrrolidone (NMP). After washing with dichloromethane (DCM), cleavage was performed by incubating for 2 h at 25 °C in a trifluoroacetic acid (TFA) solution containing water, phenol, and triisopropylsilane. The crude peptide was precipitated by dilution with ice-cold diethyl ether, then spread on the tube wall, and dried. After resuspension in 25 °C water, the peptide was purified by reversed phase high- performance liquid chromatograph y (RP-HP LC) on a Jupiter C18 column (4.6 × 250 mm, 300 Å, 5 µm; Phenomenex, Torrance, CA, USA). […]
# as §3, §4
Substance,"remaining at 2 h, 0.2 mg/mL [1] [%]",toxicity to mammalian cells [2],hemolysis rate ([3]; 12.5 µM) [%],hemolysis rate ([3]; 25 µM) [%],hemolysis rate ([3]; 50 µM) [%],hemolysis rate ([3]; 100 µM) [%],hemolysis rate ([3]; 200 µM) [%],toxicity by calcein leakage assay [4],bacteria killed [5] [%]
GILGKLWEGVKSIF-NH2 [Hp1404],50,not toxic,2,11,55,92,100,–,–
ILKKLLKKVKKI-NH2 [Hp1404-T1e],–,–,–,–,–,–,–,not toxic,85
